Entries after “also recorded” stand apart in the source; their conditions may differ. Like-named read-outs stand apart in the source and are kept apart here.
Columns and labels:
[1] = target: T1, recombinant human gonadotropin-releasing hormone receptor (GnRHR) (Homo sapiens, UniProt P30968); experiment: FLIPR calcium flux assay in CHO-K1/GNRHR/Gα15 cells; format: cell-based; conditions: Buserelin EC80 agonist, read-out: EC50, inhibition of intracellular calcium release
T1 construct: expressed in transfected cells
T1 sequence (P30968 1-328): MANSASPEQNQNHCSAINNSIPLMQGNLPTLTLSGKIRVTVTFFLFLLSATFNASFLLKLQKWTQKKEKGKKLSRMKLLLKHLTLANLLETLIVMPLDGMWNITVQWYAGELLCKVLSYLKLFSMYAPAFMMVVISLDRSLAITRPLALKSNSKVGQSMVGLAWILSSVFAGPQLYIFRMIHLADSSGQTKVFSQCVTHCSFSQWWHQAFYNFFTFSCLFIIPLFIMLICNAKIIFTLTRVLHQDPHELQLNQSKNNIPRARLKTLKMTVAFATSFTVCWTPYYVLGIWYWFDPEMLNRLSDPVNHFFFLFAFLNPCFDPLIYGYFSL
Method: Intracellular calcium changes of cell line CHO-K1/GNRHR/Gα15 that is stable of a recombinant human gonadotropin-releasing hormone receptor (GnRHR) were measured using an FLIPR calcium flux assay kit (Calcium 4 assay kit). GnRHR is a G protein-coupled receptor (GPCRs), and a GPCRs signal enabled intracellular calcium release through a Gq pathway. Therefore, functional changes of GnRHR, which carried out signal transduction through the Gq pathway, can be detected by detecting intracellular calcium release with a calcium-sensitive fluorescent probe. The assay steps were as follows: • 1. Cells were seeded in 384-well plates (Corning, Cat #:3764) at a density of 10,000 cells/well with an F12+10% FBS medium (20 μl/well) and cultured overnight (18 h). • 2. A dye working solution was prepared from a probenecid stock solution (500 mM) and a Calcium 4 stock solution mixed at 1:100. A sample to be tested G201 and Elagolix (2 mM in DMSO) was diluted with an assay buffer, specifically, 5 μl of 2 mM stock solution was taken and diluted to 200 μl (50 μM) to obtain a 5× sample working solution of a first concentration. 20 μl of the 5× sample working solution was taken and diluted to 200 μl, and after even mixing, a sample working solution of a second concentration was obtained. A total of eight gradient dilutions of sample working solutions were prepared respectively. […]

[2] = test system: serum luteinizing hormone (LH); experiment: Pharmacodynamic assay in male emasculated cynomolgus monkeys (serum LH); format: in vivo
Method: Three male cynomolgus monkeys (purchased from Guangxi GuiDong Quadrumana Development & Laboratory Co., Ltd.), 3 to 5 years old (weight 3.8 to 4.0 kg), were fasted overnight and underwent bilateral orchiectomy under anesthesia. Serum luteinizing hormone (LH) was measured in the cynomolgus monkeys from 3 to 7 weeks after emasculation using radioimmunoassay.
After successful emasculation surgical modeling, G201 and Elagolix Sodium (dissolvent: 0.5% CMC-Na) were given in 2 administration cycles by single oral gavage at doses of 10 mg/kg and 30 mg/kg, respectively, both in a volume of 10 mL/kg. Each administration cycle was separated by an elution period of approximately 2 weeks. For each cycle of administration, blood was collected before and 0.25, 0.5, 1, 2, 3, 6, 8 and 24 h after administration, respectively, and serum was separated for gonadal hormone LH assay.

[3] = Rat pharmacokinetic assay; format: in vivo; conditions: SD rats; for F (absolute bioavailability) / bioavailability: oral gavage 50 mg/kg vs intravenous 25 mg/kg; for bioavailability / AUC(0-inf) / Cmax / Tmax / AUC(0-t) / clearance / Vd: female, rat, plasma; for bioavailability: SD, oral, 50 mg/kg, read-out: F (absolute bioavailability); for AUC(0-t): read-out: AUC0-24 h; for clearance: read-out: CLz (clearance rate) (converted); for Vd: read-out: Vz (apparent volume of distribution)
Method: 12 female SD rats, divided into four groups of three per group, were administrated G201 (dissolved in saline containing 5% N,N-dimethylacetamide and 5% cremophor ELL) and Elagolix Sodium (dissolved directly in saline) intravenously and by gavage at doses of 25 mg/kg and 50 mg/kg, respectively. Food was fasted overnight before administration and resumed 4 h after administration, with free access to water throughout the assay period. Blood was collected from the retro-orbital venous plexus before and 5, 15, 30 min, 1, 2, 4, 6, 8, 24 h after administration, and the volume of blood collected was approximately 0.2 mL. A whole blood sample centrifuged at 4000 rpm for 10 min within 1 h from collection. The upper layer of plasma was separated and stored in a refrigerator at minus 20° C. within 1 h until analysis. After the plasma sample were precipitated by methanolic protein at 1:8, G201 and Elagolix plasma concentrations were measured by an LC-MS/MS method, and main pharmacokinetic parameters were calculated by applying DAS3.2.7 software.

[4] = Mouse pharmacokinetic assay; format: in vivo; conditions: ICR mice
Method: 10 female ICR mice, divided into two groups of five per group, were administrated G201 intravenously and by oral gavage, respectively, at a dose of 10 mg/kg. Blood was collected from the retro-orbital venous plexus 0.083, 0.25, 0.5, 1, 2, 4, 6, 8 h after administration, and the volume of blood collected was approximately 0.1 mL. A blood sample was centrifuged at 4000 rpm for 10 min within 1 h. The upper layer of plasma was separated and stored in a refrigerator at minus 80° C. within 1 h to be measured. The subject animals were fasted for at least 12 h before blood collection and were not water fasted. Food and water were fasted during blood collection and free 2 h after administration. The plasma concentration of G201 in the ICR mice was measured by an LC-MS/MS method, and main pharmacokinetic parameters were calculated by applying DAS 3.2.7 pharmacokinetic software and include AUC0-4, AUC0-∞, Cmax, t1/2, etc.

[5] = rats; cited from earlier work
[6] = monkeys; cited from earlier work
[7] = rats, oral radiolabeled Elagolix; cited from earlier work
[8] = human bodies; cited from earlier work
[9] = mice, dose of 10 mg/kg; cited from earlier work
[10] = female, mouse, plasma, intravenous injection 10 mg/kg
[11] = female, mouse, plasma, oral administration 10 mg/kg

| Compound | t1/2z ([3]; intravenous injection 25 mg/kg) [min] | t1/2z ([3]; oral gavage 50 mg/kg) [min] | F (absolute bioavailability) [3] [%] | bioavailability [3] [%] | AUC(0-inf) ([3]; intravenous injection 25 mg/kg) [ng·h/mL] | Cmax ([3]; intravenous injection 25 mg/kg) [ng/mL] | Tmax ([3]; intravenous injection 25 mg/kg) [min] | AUC(0-t) ([3]; intravenous injection 25 mg/kg) [ng·h/mL] | clearance ([3]; intravenous injection 25 mg/kg) [mL/min/kg] | Vd ([3]; intravenous injection 25 mg/kg) [L/kg] | AUC(0-inf) ([3]; oral gavage 50 mg/kg) [ng·h/mL] | Cmax ([3]; oral gavage 50 mg/kg) [ng/mL] | Tmax ([3]; oral gavage 50 mg/kg) [min] | AUC(0-t) ([3]; oral gavage 50 mg/kg) [ng·h/mL] | further results |
| --- | --- | --- | --- | --- | --- | --- | --- | --- | --- | --- | --- | --- | --- | --- | --- |
| COc1cccc(-c2c(C)n(Cc3c(F)cccc3C(F)(F)F)c(=O)n(C[C@H](NCCCC(=O)O)c3ccccc3F)c2=O)c1F [Compound G201] | 47.4 | 282 | 51.9 | 51.9 | 15700 | 27200 | 4.8 | 15700 | 27 | 1.82 | 16400 | 17000 | 25.2 | 16300 | IC50 [1]: 37.6 nM; general condition, weight and abnormalities during the assay period ([2]; single oral gavage 10 mg/kg): no subject-related abnormalities were observed; serum LH change after administration ([2]; single oral gavage 10 mg/kg): decreased significantly; time of serum LH minimum after administration ([2]; single oral gavage 10 mg/kg): 3 h; serum LH inhibitory effect compared with 30 mg/kg Elagolix Sodium ([2]; single oral gavage 10 mg/kg G201): slightly higher magnitude of change; also recorded: comparable or superior; oral AUC0-∞ relative to that of Elagolix Sodium ([3]; oral gavage 50 mg/kg): three times; CLz ([4]; intravenous injection 10 mg/kg): 53 mL/min/kg; t1/2z ([4]; intravenous injection 10 mg/kg): 15.6 min; t1/2z ([4]; oral administration 10 mg/kg): 25.8 min; AUC(0-inf) [4, 10]: 3250 ng·h/mL; AUC(0-t) [4, 10]: 3240 ng·h/mL; Vd ([4]; female, mouse, plasma, intravenous injection 10 mg/kg, read-out: Vz): 1.17 L/kg; AUC(0-inf) [4, 11]: 1270 ng·h/mL; AUC(0-t) [4, 11]: 1010 ng·h/mL; Cmax [4, 11]: 2000 ng/mL; Tmax [4, 11]: 16.2 min; bioavailability ([4]; female, mouse, plasma, oral administration 10 mg/kg vs intravenous 10 mg/kg, read-out: F (absolute bioavailability)): 38.9% |
| COc1cccc(-c2c(C)n(Cc3c(F)cccc3C(F)(F)F)c(=O)n(C[C@H](NCCCC(=O)[O-])c3ccccc3)c2=O)c1F.[Na+] [Elagolix Sodium, Sodium R-(+)-4-{2-[5-(2-Fluoro-3-methoxyphenyl)-3-(2-fluoro-6-[trifluoromethyl]-benzyl)-4-methyl-2,6-dioxo-3,6-dihydro-2H-pyrimidin-1-yl]-1-phenylethylamino}butyrate, reference compound] | 130 | 272 | 23.7 | 23.6 | 10200 | 15600 | 4.8 | 10200 | 41.3 | 8.46 | 4870 | 4660 | 25.2 | 4830 | general condition, weight and abnormalities during the assay period ([2]; single oral gavage 30 mg/kg): no subject-related abnormalities were observed; serum LH change after administration ([2]; single oral gavage 30 mg/kg): decreased significantly; time at which serum LH returned to the pre-administration level ([2]; single oral gavage 30 mg/kg): 24 h; time of serum LH minimum after administration ([2]; single oral gavage 30 mg/kg): 3 h |
| COc1cccc(-c2c(C)n(Cc3c(F)cccc3C(F)(F)F)c(=O)n(C[C@H](NCCCC(=O)[O-])c3ccccc3)c2=O)c1F.[Na+] [Elagolix, Sodium R-(+)-4-{2-[5-(2-Fluoro-3-methoxyphenyl)-3-(2-fluoro-6-[trifluoromethyl]-benzyl)-4-methyl-2,6-dioxo-3,6-dihydro-2H-pyrimidin-1-yl]-1-phenylethylamino}butyrate] |  |  |  |  |  |  |  |  |  |  |  |  |  |  | absolute oral bioavailability [5]: 5.8%; absolute oral bioavailability [6]: 11%; total radioactivity excreted through the bile [7]: ~50%; apparent volume of distribution [8]: 1674 L; absolute bioavailability [9]: 10% |
